Laboratory results: patent US5631265A, “8-substituted tetrahydro-beta-carbolines” (Eli Lilly and Company, priority 1995, dated 1997)
Read-outs that look alike come from different tables or passages of the source.

Key:
5-HT2C receptor [1] = molecular target: T1, 5-HT2C receptor (Rattus norvegicus, UniProt P08909); test: Radioligand binding, Rat 2C (Table I)
T1 sequence (P08909 33-460): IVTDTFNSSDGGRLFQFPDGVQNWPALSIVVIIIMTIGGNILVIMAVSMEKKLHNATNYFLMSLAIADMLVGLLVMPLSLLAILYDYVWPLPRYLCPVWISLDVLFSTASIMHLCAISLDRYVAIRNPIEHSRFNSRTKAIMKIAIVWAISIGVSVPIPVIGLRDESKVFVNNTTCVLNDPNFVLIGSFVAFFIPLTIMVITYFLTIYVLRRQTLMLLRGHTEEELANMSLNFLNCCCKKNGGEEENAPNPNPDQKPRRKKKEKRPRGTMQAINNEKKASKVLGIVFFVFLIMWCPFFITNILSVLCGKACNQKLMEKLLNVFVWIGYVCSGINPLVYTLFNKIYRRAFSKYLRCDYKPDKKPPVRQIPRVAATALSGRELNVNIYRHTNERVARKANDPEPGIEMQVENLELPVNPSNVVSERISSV
Experimental: (§1) [^3 H]5-HT binding studies. Binding assays were automated using a Biomek 1000 (Beckman instruments, Fullerton, Calif.) and were performed in triplicate in 0.8 ml total volume. Membrane suspension, 200 μl, (0.04-0.27 mg protein) and 200 μl of drug dilution in water were added to 400 μl of 67 mM Tris-HCl, pH 7.4, containing [^3 H]5-HT, pargyline, CaCl2, and L-ascorbic acid. Final concentrations of pargyline, CaCl2 and L-ascorbic acid were 10 μM, 3 mM and 0.1%, respectively. Tubes were incubated at 37° C. for 15 min or at 0° C. for 2 hours (binding equilibria were verified for both of these conditions), then rapidly filtered using a Brandel cell harvester (Model MB-48R; Brandel, Gaithersburg, Md.) through Whatman GF/B filters which had been presoaked in 0.5% polyethylenimine and precooled with ice-cold 50 mM Tris-HCl, pH 7.4. The filters were then washed rapidly four times with one ml ice-cold 50 mM Tris-HCl, pH 7.4. The amount of [^3 H]5-HT trapped on the filters was determined by liquid scintillation spectrometry (Ready Protein and Beckman automated using a Biomek 1000 (Beckman Instruments, Fullerton, Calif.) and were performed in triplicate in 0.8 ml total volume. Membrane suspension, 200 μl, (0.04-0.27 mg protein) and 200 μl of drug dilution in water were added to 400 μl of 67 mM Tris-HCl, pH 7.4, containing [^3 H]5-HT, pargyline, CaCl2, and L-ascorbic acid. Final concentrations of pargyline, CaCl2 and L-ascorbic acid were 10 μM, 3 mM and 0.1%, respectively. Tubes were incubated at 37° C. for 15 min or at 0° C. for 2 hours (binding equilibria were verified for both of these conditions), then rapidly filtered using a Brandel cell harvester (Model MB-48R; Brandel, Gaithersburg, Md.) through Whatman GF/B filters which had been presoaked in 0.5% polyethylenimine and precooled with ice-cold 50 mM Tris-HCl, pH 7.4. […]
(§2) Compounds of this invention were tested using the described in vitro assay. Results of the radioligand binding experiments are illustrated in Table I. The values reported in Table I are expressed as Ki calculated as described infra.

[2] = molecular target: T2, cloned rat 5-HT2B receptor (Rattus norvegicus, UniProt P30994); test: Radioligand binding, [3H]5-HT, cloned rat 5-HT2B receptor (Table I)
T2 construct: expressed in transfected cells
Experimental: Radioligand Binding Studies
Membrane preparation from transformed cells. Suspension cells expressing the cloned rat 5-HT2B receptor were harvested by centrifugation at 2,200 ×g for 15 min at 4° C. Kursar, J. D., D. L. Nelson, D. B. Wainscott, M. L. Cohen, and M. Baez, Mol. Pharmacol., 42: 549-557 (1992). Membranes for the binding assays were prepared by vortexing the pellet in 50 mM Tris-HCl, pH 7.4 (0.5×10^9 cells/30 ml). The tissue suspension was then centrifuged at 39,800 ×g for 10 min at 4° C. This procedure was repeated for a total of three washes, with a 10 minute incubation at 37° C. between the first and second wash. The final pellet was homogenized in 67 mM Tris-HCl, pH 7.4 (at 20-40 and 12.5 million cells/ml, original cell number, for cells expressing low and relatively high levels of the 5-HT2B receptor, respectively) using a Tissumizer (Tekmar, Cincinnati, Ohio), setting 65 for 15 seconds.
[^3 H]5-HT binding studies. Binding assays were automated using a Biomek 1000 (Beckman instruments, Fullerton, Calif.) and were performed in triplicate in 0.8 ml total volume. Membrane suspension, 200 μl, (0.04-0.27 mg protein) and 200 μl of drug dilution in water were added to 400 μl of 67 mM Tris-HCl, pH 7.4, containing [^3 H]5-HT, pargyline, CaCl2, and L-ascorbic acid. Final concentrations of pargyline, CaCl2 and L-ascorbic acid were 10 μM, 3 mM and 0.1%, respectively. Tubes were incubated at 37° C. for 15 min or at 0° C. for 2 hours (binding equilibria were verified for both of these conditions), then rapidly filtered using a Brandel cell harvester (Model MB-48R; Brandel, Gaithersburg, Md.) through Whatman GF/B filters which had been presoaked in 0.5% polyethylenimine and precooled with ice-cold 50 mM Tris-HCl, pH 7.4. The filters were then washed rapidly four times with one ml ice-cold 50 mM Tris-HCl, pH 7.4. The amount of [^3 H]5-HT trapped on the filters was determined by liquid scintillation spectrometry (Ready Protein and Beckman automated using a Biomek 1000 (Beckman Instruments, Fullerton, Calif.) and were performed in triplicate in 0.8 ml total volume. Membrane suspension, 200 μl, (0.04-0.27 mg protein) and 200 μl of drug dilution in water were added to 400 μl of 67 mM Tris-HCl, pH 7.4, containing [^3 H]5-HT, pargyline, CaCl2, and L-ascorbic acid. Final concentrations of pargyline, CaCl2 and L-ascorbic acid were 10 μM, 3 mM and 0.1%, respectively. Tubes were incubated at 37° C. for 15 min or at 0° C. for 2 hours (binding equilibria were verified for both of these conditions), then rapidly filtered using a Brandel cell harvester (Model MB-48R; Brandel, Gaithersburg, Md.) through Whatman GF/B filters which had been presoaked in 0.5% polyethylenimine and precooled with ice-cold 50 mM Tris-HCl, pH 7.4. The filters were then washed rapidly four times with one ml ice-cold 50 mM Tris-HCl, pH 7.4. The amount of [^3 H]5-HT trapped on the filters was determined by liquid scintillation spectrometry (Ready Protein and Beckman determined for best fit to a one-site or a two-site binding model using a partial […]. De Lean, A., A. A. Hancock, and R. J. Lefkowitz, Mol. Pharmacol., 21:5-16 (1981). The following equation was used for a one-site binding model, [formula] where Bound=amount of [^3 H]5-HT specifically bound, Bmax =maximum number of binding sites, Kd =equilibrium dissociation constant and [L]=free concentration of [^3 H]5-HT, or a two-site binding model, [formula] where Bound=amount of [^3 H]5-HT specifically bound, Bmax1 =maximum number of high affinity binding sites, Bmax2 =maximum number of low affinity binding sites, Kd1 =equilibrium dissociation constant for the high affinity site, Kd2 =equilibrium dissociation constant for the low affinity site and [L]=free concentration of [^3 H]5-HT. […]

5-HT2C receptor [3] = molecular target: T3, 5-HT2C receptor (Homo sapiens, UniProt P28335); test: Radioligand binding, Human 2C (Table I)
T3 sequence (P28335 33-458): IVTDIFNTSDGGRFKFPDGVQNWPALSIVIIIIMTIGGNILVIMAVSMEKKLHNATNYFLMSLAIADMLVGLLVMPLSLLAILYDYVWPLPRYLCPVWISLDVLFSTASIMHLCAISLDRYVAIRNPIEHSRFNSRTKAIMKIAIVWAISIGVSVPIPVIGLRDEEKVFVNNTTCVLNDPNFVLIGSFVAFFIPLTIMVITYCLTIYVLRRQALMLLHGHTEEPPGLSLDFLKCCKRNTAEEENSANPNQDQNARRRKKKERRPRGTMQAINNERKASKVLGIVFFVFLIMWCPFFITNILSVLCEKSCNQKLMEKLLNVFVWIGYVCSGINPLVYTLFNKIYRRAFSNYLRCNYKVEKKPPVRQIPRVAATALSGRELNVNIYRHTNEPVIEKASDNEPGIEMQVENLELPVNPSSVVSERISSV
Experimental: as §1, §2

5-HT2B receptor = 5-HT2B receptor (Homo sapiens, UniProt P41595); test: Radioligand binding, Human 2B (Table I)
Experimental: as §1, with “Tubes were incubated at 37° C. for 15 min or at 0° C. for 2 hours (binding equilibria were verified for both of these conditions), then rapidly filtered using a Brandel cell harvester (Model MB-48R; Brandel, Gaithersburg, Md.) through Whatman GF/B filters which had been presoaked in 0.5% polyethylenimine and precooled with ice-cold 50 mM Tris-HCl, pH 7.4. The filters were then washed rapidly four times with one ml ice-cold 50 mM Tris-HCl, pH 7.4.” left out

[4] = Rat 2C, Ki from IC50 by Cheng-Prusoff, read-out: Ki Rat 2C
[5] = cloned rat 5-HT2B receptor, [3H]5-HT, Ki from IC50 by Cheng-Prusoff, read-out: Ki Rat 2B
[6] = Human 2C, Ki from IC50 by Cheng-Prusoff, read-out: Ki Human 2C

T2 sequence (P30994 whole entry): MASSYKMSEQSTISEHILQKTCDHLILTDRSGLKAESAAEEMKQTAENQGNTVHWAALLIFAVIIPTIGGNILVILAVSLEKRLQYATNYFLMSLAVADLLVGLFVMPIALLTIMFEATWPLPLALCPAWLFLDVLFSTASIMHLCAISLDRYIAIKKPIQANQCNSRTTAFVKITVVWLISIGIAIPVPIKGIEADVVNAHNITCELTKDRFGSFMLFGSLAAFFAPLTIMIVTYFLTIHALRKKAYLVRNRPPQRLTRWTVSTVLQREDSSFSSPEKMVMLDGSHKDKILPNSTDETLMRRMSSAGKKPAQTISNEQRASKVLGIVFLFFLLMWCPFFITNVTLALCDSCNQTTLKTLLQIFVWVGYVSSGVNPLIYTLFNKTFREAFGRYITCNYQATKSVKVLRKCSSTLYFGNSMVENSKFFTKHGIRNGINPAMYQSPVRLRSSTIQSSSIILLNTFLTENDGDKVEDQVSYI
Chain of 5-HT2B receptor (P41595 whole entry): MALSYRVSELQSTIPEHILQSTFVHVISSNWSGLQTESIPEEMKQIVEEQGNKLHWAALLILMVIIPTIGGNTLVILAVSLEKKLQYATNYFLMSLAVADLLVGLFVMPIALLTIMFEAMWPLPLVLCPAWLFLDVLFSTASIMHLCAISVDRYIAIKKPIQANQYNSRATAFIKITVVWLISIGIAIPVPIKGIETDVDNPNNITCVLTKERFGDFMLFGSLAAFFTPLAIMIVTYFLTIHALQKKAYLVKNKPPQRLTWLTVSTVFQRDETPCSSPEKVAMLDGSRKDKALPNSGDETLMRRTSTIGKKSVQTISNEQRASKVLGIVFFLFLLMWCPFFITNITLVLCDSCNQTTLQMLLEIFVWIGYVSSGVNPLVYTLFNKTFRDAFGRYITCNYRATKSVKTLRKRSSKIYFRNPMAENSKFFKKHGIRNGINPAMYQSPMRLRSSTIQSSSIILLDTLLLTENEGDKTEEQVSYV

| Structure (SMILES) | Ki [2, 5] [nM] | Ki [2] [nM] | also measured |
| --- | --- | --- | --- |
| Cc1ccc2c3c([nH]c2c1Br)CNCC3 [Example 1, 7-methyl-8-bromo-1,2,3,4-tetrahydro-9H-pyrido[3,4b]-indole] | 3.17 |  | Ki (5-HT2C receptor [1]; [4]): 14.2 nM; Ki (5-HT2C receptor [3]; [6]): 18.2 nM |
| COc1cccc2c3c([nH]c12)CNCC3 [Example 2, 8-methoxy-1,2,3,4-tetrahydro-9H-pyrido[3,4b]-indole] |  | 34.5 |  |
| CCCN1CCc2c([nH]c3c(OC)cccc23)C1 [Example 3, 8-methoxy-2(N)-propy1,2,3,4-tetrahydro-9H-pyrido[3,4b]-indole] |  | 114 |  |
| COc1cccc2c3c([nH]c12)CN(C)CC3 [Example 4, 8-methoxy-2(N)-methyl-1,2,3,4-tetrahydro-9H-pyrido[3,4b]-indole] |  | 71.7 |  |
| COc1cccc2c3c([nH]c12)CN(CC1CC1)CC3 [Example 5, 8-methoxy-2(N)-cyclopropylmethyl-1,2,3,4-tetrahydro-9H-pyrido[3,4b]-indole] |  | 97.5 |  |
| CN1CCc2c([nH]c3ccc(O)cc23)C1 [Example 6] | 4610 |  |  |
| Cc1ccc2c3c([nH]c2c1C)CNCC3 [Example 7, 7,8-dimethyl-1,2,3,4-tetrahydro-9H-pyrido[3,4b]-indole] | 15.8 |  |  |
| Cc1cc(Br)c2[nH]c3c(c2c1)CCNC3 [Example 8, 6-methyl-8-bromo-1,2,3,4-tetrahydro-9H-pyrido[3,4b]-indole] | 14 |  | Ki (5-HT2B receptor; Human 2B, Ki from IC50 by Cheng-Prusoff, read-out: Ki Human 2B): 16.4 nM; Ki (5-HT2C receptor [1]; [4]): 34.9 nM; Ki (5-HT2C receptor [3]; [6]): 38.6 nM |
| Fc1cc(F)c2[nH]c3c(c2c1)CCNC3 [Example 9, 6,8-difluoro-1,2,3,4-tetrahydro-9H-pyrido[3,4b]-indole] |  | 57.9 |  |
| Brc1cccc2c3c([nH]c12)CNCC3 [Example 10, 8-bromo-1,2,3,4-tetrahydro-9H-pyrido[3,4b]-indole] |  | 6.2 | Ki (5-HT2B receptor): 9.68 nM; Ki (5-HT2C receptor [1]): 22.4 nM; Ki (5-HT2C receptor [3]): 13.2 nM |
